# Key:
# [1] = target: Activin receptor type-2A (Homo sapiens) (UniProt P27037); conditions: Compound concentration 1000.0 nM
# [2] = target: Calcium/calmodulin-dependent protein kinase kinase 1 (Homo sapiens) (UniProt Q8N5S9); conditions: Compound concentration 1000.0 nM
# [3] = target: Cyclin-dependent kinase 11A (Homo sapiens) (UniProt Q9UQ88); conditions: Compound concentration 1000.0 nM
# [4] = target: Dual specificity protein kinase CLK2 (Homo sapiens) (UniProt P49760); conditions: Compound concentration 1000.0 nM
# [5] = target: Casein kinase I isoform alpha (Homo sapiens) (UniProt P48729); conditions: Compound concentration 1000.0 nM
# [6] = target: Epithelial discoidin domain-containing receptor 1 (Homo sapiens) (UniProt Q08345); conditions: Compound concentration 1000.0 nM
# [7] = target: Dual specificity tyrosine-phosphorylation-regulated kinase 1A (Homo sapiens) (UniProt Q13627); conditions: Compound concentration 1000.0 nM
# [8] = test system: Epidermal growth factor receptor (Homo sapiens), P00533 [L858R,T790M]; conditions: Compound concentration 1000.0 nM
# [9] = target: Receptor tyrosine-protein kinase erbB-3 (Homo sapiens) (UniProt P21860); conditions: Compound concentration 1000.0 nM
# [10] = target: Receptor tyrosine-protein kinase erbB-4 (Homo sapiens) (UniProt Q15303); conditions: Compound concentration 1000.0 nM
# [11] = target: Mitogen-activated protein kinase 6 (Homo sapiens) (UniProt Q16659); conditions: Compound concentration 1000.0 nM
# [12] = target: Mitogen-activated protein kinase 4 (Homo sapiens) (UniProt P31152); conditions: Compound concentration 1000.0 nM
# [13] = target: Fibroblast growth factor receptor 3 (Homo sapiens) (UniProt P22607); conditions: Compound concentration 1000.0 nM
# [14] = test system: Fibroblast growth factor receptor 3 (Homo sapiens), P22607 [G697C]; conditions: Compound concentration 1000.0 nM
# [15] = target: Mitogen-activated protein kinase 10 (Homo sapiens) (UniProt P53779); conditions: Compound concentration 1000.0 nM
# [16] = target: Serine/threonine-protein kinase STK11 (Homo sapiens) (UniProt Q15831); conditions: Compound concentration 1000.0 nM
# [17] = target: Leucine-rich repeat serine/threonine-protein kinase 2 (Homo sapiens) (UniProt Q5S007); conditions: Compound concentration 1000.0 nM
# [18] = target: Mitogen-activated protein kinase kinase kinase kinase 2 (Homo sapiens) (UniProt Q12851); conditions: Compound concentration 1000.0 nM
# [19] = target: MAP kinase-activated protein kinase 5 (Homo sapiens) (UniProt Q8IW41); conditions: Compound concentration 1000.0 nM
# [20] = target: Serine/threonine-protein kinase MARK2 (Homo sapiens) (UniProt Q7KZI7); conditions: Compound concentration 1000.0 nM
# [21] = target: Dual specificity mitogen-activated protein kinase kinase 1 (Homo sapiens) (UniProt Q02750); conditions: Compound concentration 1000.0 nM
# [22] = target: Dual specificity mitogen-activated protein kinase kinase 2 (Homo sapiens) (UniProt P36507); conditions: Compound concentration 1000.0 nM
# [23] = target: Tyrosine-protein kinase Mer (Homo sapiens) (UniProt Q12866); conditions: Compound concentration 1000.0 nM
# [24] = target: Misshapen-like kinase 1 (Homo sapiens) (UniProt Q8N4C8); conditions: Compound concentration 1000.0 nM
# [25] = target: Serine/threonine-protein kinase OSR1 (Homo sapiens) (UniProt O95747); conditions: Compound concentration 1000.0 nM
# [26] = target: Mitogen-activated protein kinase 11 (Homo sapiens) (UniProt Q15759); conditions: Compound concentration 1000.0 nM
# [27] = target: Calcium-dependent protein kinase 1 (Plasmodium falciparum) (UniProt P62344); conditions: Compound concentration 1000.0 nM
# [28] = test system: Phosphatidylinositol 4,5-bisphosphate 3-kinase catalytic subunit alpha isoform (Homo sapiens), P42336 [E545K]; conditions: Compound concentration 1000.0 nM
# [29] = target: Serine/threonine-protein kinase pim-1 (Homo sapiens) (UniProt P11309); conditions: Compound concentration 1000.0 nM
# [30] = target: Phosphatidylinositol 5-phosphate 4-kinase type-2 beta (Homo sapiens) (UniProt P78356); conditions: Compound concentration 1000.0 nM
# [31] = target: cAMP-dependent protein kinase catalytic subunit alpha (Homo sapiens) (UniProt P17612); conditions: Compound concentration 1000.0 nM
# [32] = target: cGMP-dependent protein kinase 1 (Homo sapiens) (UniProt Q13976); conditions: Compound concentration 1000.0 nM
# [33] = target: Serine/threonine-protein kinase SIK3 (Homo sapiens) (UniProt Q9Y2K2); conditions: Compound concentration 1000.0 nM
# [34] = target: Receptor-interacting serine/threonine-protein kinase 2 (Homo sapiens) (UniProt O43353); conditions: Compound concentration 1000.0 nM
# [35] = target: Receptor-interacting serine/threonine-protein kinase 4 (Homo sapiens) (UniProt P57078); conditions: Compound concentration 1000.0 nM
# [36] = target: Ribosomal protein S6 kinase alpha-4 (Homo sapiens) (UniProt O75676); conditions: Compound concentration 1000.0 nM
# [37] = target: Uncharacterized serine/threonine-protein kinase SBK3 (Homo sapiens) (UniProt P0C264); conditions: Compound concentration 1000.0 nM
# [38] = target: Proto-oncogene tyrosine-protein kinase Src (Homo sapiens) (UniProt P12931); conditions: Compound concentration 1000.0 nM
# [39] = target: SRSF protein kinase 3 (Homo sapiens) (UniProt Q9UPE1); conditions: Compound concentration 1000.0 nM
# [40] = target: Serine/threonine-protein kinase 36 (Homo sapiens) (UniProt Q9NRP7); conditions: Compound concentration 1000.0 nM
# [41] = target: Phosphatidylinositol 3-kinase catalytic subunit type 3 (Homo sapiens) (UniProt Q8NEB9); conditions: Compound concentration 1000.0 nM
# [42] = target: Serine/threonine-protein kinase 32A (Homo sapiens) (UniProt Q8WU08); conditions: Compound concentration 1000.0 nM
# [43] = target: Sodium-dependent dopamine transporter (Homo sapiens) (UniProt Q01959); conditions: Compound concentration 10.0 uM
# [44] = target: Alpha-2C adrenergic receptor (Homo sapiens) (UniProt P18825); conditions: Compound concentration 10.0 uM
# [45] = target: Muscarinic acetylcholine receptor M5 (Homo sapiens) (UniProt P08912); conditions: Compound concentration 10.0 uM
# Chain of Uncharacterized serine/threonine-protein kinase SBK3 (Homo sapiens) (P0C264 whole entry): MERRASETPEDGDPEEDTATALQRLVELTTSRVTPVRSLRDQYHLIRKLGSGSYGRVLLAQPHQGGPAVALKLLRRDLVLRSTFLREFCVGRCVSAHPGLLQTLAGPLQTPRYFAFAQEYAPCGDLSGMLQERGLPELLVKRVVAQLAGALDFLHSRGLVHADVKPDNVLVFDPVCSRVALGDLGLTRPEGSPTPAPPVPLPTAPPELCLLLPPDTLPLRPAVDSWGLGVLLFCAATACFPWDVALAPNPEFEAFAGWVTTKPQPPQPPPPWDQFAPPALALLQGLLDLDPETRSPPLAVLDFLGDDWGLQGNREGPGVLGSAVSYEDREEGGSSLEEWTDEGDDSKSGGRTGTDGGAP
# Chain of Epithelial discoidin domain-containing receptor 1 (Homo sapiens) (Q08345 whole entry, the tested form may be a part): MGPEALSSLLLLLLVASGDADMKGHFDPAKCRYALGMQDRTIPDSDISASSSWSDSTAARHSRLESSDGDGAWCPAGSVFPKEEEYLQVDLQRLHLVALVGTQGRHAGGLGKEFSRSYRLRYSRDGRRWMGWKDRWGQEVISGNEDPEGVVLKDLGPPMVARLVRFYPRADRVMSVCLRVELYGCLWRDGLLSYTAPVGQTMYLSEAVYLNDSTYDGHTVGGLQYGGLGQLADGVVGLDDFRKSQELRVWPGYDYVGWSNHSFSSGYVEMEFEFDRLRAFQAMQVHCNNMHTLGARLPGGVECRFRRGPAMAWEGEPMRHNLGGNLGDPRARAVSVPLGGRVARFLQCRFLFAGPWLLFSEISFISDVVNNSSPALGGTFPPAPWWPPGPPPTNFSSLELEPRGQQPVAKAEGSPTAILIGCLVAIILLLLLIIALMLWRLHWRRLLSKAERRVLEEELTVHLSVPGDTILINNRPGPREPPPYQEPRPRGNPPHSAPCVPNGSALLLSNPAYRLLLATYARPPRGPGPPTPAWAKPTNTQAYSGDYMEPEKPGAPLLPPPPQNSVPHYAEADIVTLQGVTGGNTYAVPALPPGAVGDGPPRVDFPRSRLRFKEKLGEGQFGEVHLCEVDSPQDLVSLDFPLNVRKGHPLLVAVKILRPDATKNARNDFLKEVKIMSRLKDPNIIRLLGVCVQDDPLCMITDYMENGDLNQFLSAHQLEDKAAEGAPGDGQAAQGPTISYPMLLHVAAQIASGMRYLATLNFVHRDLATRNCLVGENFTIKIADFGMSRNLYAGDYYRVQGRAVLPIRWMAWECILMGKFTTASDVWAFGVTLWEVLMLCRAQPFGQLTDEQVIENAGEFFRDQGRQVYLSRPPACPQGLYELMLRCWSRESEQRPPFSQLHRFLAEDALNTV
# Chain of Serine/threonine-protein kinase MARK2 (Homo sapiens) (Q7KZI7 whole entry): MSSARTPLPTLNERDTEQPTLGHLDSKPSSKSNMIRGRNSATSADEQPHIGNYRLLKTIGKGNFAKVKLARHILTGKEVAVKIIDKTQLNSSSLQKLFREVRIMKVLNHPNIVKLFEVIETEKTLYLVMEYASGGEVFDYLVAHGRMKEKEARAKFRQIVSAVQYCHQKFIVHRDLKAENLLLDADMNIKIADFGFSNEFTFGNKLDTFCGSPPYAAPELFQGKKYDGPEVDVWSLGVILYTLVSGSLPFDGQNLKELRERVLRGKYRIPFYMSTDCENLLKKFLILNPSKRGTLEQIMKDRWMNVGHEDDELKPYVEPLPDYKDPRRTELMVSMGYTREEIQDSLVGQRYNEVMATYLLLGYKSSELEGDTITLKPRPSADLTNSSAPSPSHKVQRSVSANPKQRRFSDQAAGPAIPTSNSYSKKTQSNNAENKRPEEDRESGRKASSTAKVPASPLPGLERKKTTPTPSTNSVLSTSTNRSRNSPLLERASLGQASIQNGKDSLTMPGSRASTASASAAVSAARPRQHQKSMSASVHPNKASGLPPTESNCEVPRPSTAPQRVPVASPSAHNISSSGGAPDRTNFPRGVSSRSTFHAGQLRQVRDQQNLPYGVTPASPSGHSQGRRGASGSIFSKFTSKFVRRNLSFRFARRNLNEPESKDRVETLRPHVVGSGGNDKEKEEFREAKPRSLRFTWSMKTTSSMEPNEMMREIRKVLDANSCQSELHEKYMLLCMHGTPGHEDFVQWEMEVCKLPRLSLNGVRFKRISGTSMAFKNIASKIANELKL
# Chain of Fibroblast growth factor receptor 3 (Homo sapiens) (P22607 23-806 limits assumed): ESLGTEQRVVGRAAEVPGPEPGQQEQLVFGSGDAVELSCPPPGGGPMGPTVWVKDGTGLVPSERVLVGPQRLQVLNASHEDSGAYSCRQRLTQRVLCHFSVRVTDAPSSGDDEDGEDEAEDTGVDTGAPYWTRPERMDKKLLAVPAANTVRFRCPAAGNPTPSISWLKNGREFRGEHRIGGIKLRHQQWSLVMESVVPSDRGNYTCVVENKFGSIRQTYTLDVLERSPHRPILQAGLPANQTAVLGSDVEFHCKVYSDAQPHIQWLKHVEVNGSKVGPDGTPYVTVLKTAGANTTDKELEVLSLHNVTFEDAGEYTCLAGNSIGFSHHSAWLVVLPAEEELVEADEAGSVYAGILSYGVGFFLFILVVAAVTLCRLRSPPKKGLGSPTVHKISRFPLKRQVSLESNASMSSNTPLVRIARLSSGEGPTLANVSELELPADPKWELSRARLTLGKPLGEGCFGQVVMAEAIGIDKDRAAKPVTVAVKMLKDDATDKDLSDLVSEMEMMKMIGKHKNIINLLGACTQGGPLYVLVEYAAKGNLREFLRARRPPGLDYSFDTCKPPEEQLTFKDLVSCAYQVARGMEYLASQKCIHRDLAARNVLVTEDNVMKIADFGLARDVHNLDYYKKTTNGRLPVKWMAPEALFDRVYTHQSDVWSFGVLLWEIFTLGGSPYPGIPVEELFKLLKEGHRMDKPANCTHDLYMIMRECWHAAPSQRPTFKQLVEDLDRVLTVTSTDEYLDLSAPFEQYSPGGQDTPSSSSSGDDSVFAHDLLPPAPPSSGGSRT
# Chain of Serine/threonine-protein kinase 36 (Homo sapiens) (Q9NRP7 whole entry): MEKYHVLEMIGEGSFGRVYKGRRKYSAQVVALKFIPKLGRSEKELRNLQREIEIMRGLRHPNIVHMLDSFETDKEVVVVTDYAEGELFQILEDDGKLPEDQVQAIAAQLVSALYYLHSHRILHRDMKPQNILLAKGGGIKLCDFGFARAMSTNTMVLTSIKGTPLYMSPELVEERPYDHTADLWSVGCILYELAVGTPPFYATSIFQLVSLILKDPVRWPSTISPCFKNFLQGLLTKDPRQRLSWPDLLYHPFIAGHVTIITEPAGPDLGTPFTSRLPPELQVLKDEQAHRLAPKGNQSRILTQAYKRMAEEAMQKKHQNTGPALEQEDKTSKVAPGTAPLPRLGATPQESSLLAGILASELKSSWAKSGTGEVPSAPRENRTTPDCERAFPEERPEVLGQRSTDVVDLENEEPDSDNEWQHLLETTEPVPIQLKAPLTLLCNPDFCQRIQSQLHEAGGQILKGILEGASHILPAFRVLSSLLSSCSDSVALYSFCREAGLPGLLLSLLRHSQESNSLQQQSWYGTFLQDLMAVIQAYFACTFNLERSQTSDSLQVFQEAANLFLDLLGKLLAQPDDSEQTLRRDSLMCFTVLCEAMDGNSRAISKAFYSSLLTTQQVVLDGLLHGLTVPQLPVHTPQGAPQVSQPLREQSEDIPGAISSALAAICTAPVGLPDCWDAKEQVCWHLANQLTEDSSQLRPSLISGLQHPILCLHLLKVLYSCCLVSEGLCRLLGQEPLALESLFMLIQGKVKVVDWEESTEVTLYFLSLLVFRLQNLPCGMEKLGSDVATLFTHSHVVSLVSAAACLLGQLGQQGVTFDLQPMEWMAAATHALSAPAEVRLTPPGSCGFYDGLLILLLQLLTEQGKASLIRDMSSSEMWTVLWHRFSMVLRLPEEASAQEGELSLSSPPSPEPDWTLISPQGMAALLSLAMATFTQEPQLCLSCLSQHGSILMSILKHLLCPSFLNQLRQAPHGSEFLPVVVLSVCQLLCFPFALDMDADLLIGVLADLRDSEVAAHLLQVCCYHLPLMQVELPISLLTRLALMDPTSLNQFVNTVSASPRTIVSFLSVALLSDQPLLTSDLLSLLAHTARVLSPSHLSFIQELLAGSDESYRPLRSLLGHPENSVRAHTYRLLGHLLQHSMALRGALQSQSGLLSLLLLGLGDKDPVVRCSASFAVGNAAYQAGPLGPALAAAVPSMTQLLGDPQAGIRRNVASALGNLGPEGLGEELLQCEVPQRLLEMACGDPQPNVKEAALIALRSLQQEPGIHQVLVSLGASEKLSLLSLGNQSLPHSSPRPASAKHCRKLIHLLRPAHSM
# Chain of Sodium-dependent dopamine transporter (Homo sapiens) (Q01959 whole entry): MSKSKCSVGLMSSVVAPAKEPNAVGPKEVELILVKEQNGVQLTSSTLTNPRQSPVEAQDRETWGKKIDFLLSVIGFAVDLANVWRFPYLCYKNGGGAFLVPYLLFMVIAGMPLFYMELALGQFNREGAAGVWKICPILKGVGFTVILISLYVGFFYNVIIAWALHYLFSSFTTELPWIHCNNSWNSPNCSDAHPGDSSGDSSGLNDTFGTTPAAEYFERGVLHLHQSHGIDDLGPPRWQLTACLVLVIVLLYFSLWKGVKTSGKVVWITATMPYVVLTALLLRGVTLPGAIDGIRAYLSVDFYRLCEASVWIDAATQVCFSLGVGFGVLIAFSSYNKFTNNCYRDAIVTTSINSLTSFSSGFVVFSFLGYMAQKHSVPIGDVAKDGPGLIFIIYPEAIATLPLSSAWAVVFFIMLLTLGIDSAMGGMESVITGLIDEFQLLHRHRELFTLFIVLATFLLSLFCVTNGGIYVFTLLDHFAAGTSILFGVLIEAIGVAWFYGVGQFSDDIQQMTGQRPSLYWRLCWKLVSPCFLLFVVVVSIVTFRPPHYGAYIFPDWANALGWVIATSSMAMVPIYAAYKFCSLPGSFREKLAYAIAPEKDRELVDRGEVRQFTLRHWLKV
smiles,measurement,setting,value
CC(C)(O)c1cncc(-c2nc3ccc(F)cc3n2C2CC2)c1 [MSD-CYP11B2],residual activity,[1],87%
same,residual activity,[2],100%
same,residual activity,[3],100%
same,residual activity,[4],100%
same,residual activity,[5],84%
same,residual activity,[6],100%
same,residual activity,[7],48%
same,residual activity,[8],92%
same,residual activity,[9],80%
same,residual activity,[10],100%
same,residual activity,[11],100%
same,residual activity,[12],100%
same,residual activity,[13],100%
same,residual activity,[14],100%
same,residual activity,[15],100%
same,residual activity,[16],98%
same,residual activity,[17],100%
same,residual activity,[18],98%
same,residual activity,[19],100%
same,residual activity,[20],100%
same,residual activity,[21],100%
same,residual activity,[22],100%
same,residual activity,[23],96%
same,residual activity,[24],100%
same,residual activity,[25],100%
same,residual activity,[26],100%
same,residual activity,[27],100%
same,residual activity,[28],95%
same,residual activity,[29],92%
same,residual activity,[30],99%
same,residual activity,[31],100%
same,residual activity,[32],78%
same,residual activity,[33],97%
same,residual activity,[34],100%
same,residual activity,[35],100%
same,residual activity,[36],100%
same,residual activity,[37],77%
same,residual activity,[38],100%
same,residual activity,[39],100%
same,residual activity,[40],93%
same,residual activity,[41],100%
same,residual activity,[42],100%
same,inhibition,[43],1.47%
same,inhibition,[44],70.1%
same,inhibition,[45],-2.81%
FC(F)(F)c1ccc2c(c1)nc(-c1cccnc1)n2C1CC1 [MSD-CYP11B2-Negative-control],residual activity,[1],100%
same,residual activity,[2],100%
same,residual activity,[3],100%
same,residual activity,[4],100%
same,residual activity,[5],90%
same,residual activity,[6],100%
same,residual activity,[7],100%
same,residual activity,[8],100%
same,residual activity,[9],77%
same,residual activity,[10],100%
same,residual activity,[11],100%
same,residual activity,[12],100%
same,residual activity,[13],100%
same,residual activity,[14],100%
same,residual activity,[15],100%
same,residual activity,[16],100%
same,residual activity,[17],100%
same,residual activity,[18],73%
same,residual activity,[19],97%
same,residual activity,[20],100%
same,residual activity,[21],94%
same,residual activity,[22],100%
same,residual activity,[23],79%
same,residual activity,[24],100%
same,residual activity,[25],100%
same,residual activity,[26],100%
same,residual activity,[27],100%
same,residual activity,[28],100%
same,residual activity,[29],94%
same,residual activity,[30],82%
same,residual activity,[31],100%
same,residual activity,[32],87%
same,residual activity,[33],100%
same,residual activity,[34],100%
same,residual activity,[35],95%
same,residual activity,[36],100%
same,residual activity,[37],76%
same,residual activity,[38],100%
same,residual activity,[39],100%
same,residual activity,[40],84%
same,residual activity,[41],100%
same,residual activity,[42],89%
same,inhibition,[43],15.3%
same,inhibition,[44],13.3%
same,inhibition,[45],-6.15%
